Laboratory results: ChEMBL document CHEMBL4665808, “Krisynomycins, Imipenem Potentiators against Methicillin-Resistant Staphylococcus aureus, Produced by Streptomyces canus” (2020)
Converted amounts (≈) assume the structure as drawn.

Key:
Assay type in all cases: functional
Staphylococcus aureus [1] = assay: Potentiation of imipenem-induced activity antibacterial against methicillin-resistance Staphylococcus aureus MB5393 in presence of 1 ug/ml imipenem by broth dilution method
Staphylococcus aureus [2] = assay: Potentiation of imipenem-induced activity antibacterial against methicillin-resistance Staphylococcus aureus MB5393 in presence of 2 ug/ml imipenem by broth dilution method
Staphylococcus aureus [3] = assay: Antibacterial against methicillin-resistance Staphylococcus aureus MB5393 by broth dilution method
Staphylococcus aureus [4] = assay: Potentiation of imipenem-induced activity antibacterial against methicillin-resistance Staphylococcus aureus MB5393 in presence of 4 ug/ml imipenem by broth dilution method

SMILES	MIC (Staphylococcus aureus [1])	MIC (Staphylococcus aureus [2])	MIC (Staphylococcus aureus [3])	MIC (Staphylococcus aureus [4])
CC(C)=CCc1ccc(Cl)c2[nH]cc(C[C@@H]3NC(=O)[C@H](Cc4c[nH]c5c(Cl)cccc45)NC(=O)[C@@H]4CCCN4C(=O)[C@@H](CS(=O)(=O)O)NC(=O)[C@@H](NC(=O)[C@@H](NC(=O)[C@H](C)NC(=O)CC(=O)O)C(C)C)COC(=O)[C@H](CO)NC(=O)[C@@H](CC(C)C)NC(=O)[C@@H](C(C)C)NC3=O)c12	0.5 µg/mL	0.5 µg/mL	16 µg/mL (≈ 11.4 µM)	0.25 µg/mL
C[C@@H](O)[C@H]1C(=O)N2C(C(=O)O)=C(SCCNC=N)C[C@H]12 [IMIPENEM ANHYDROUS]			16 µg/mL (≈ 53.4 µM)	
CC(C)=CCc1cccc2[nH]cc(C[C@@H]3NC(=O)[C@H](Cc4c[nH]c5c(Cl)cccc45)NC(=O)[C@@H]4CCCN4C(=O)[C@@H](CS(=O)(=O)O)NC(=O)[C@@H](NC(=O)[C@@H](NC(=O)[C@H](C)NC(=O)CC(=O)O)C(C)C)COC(=O)[C@H](CO)NC(=O)[C@@H](CC(C)C)NC(=O)[C@@H](C(C)C)NC3=O)c12	4 µg/mL	4 µg/mL	> 128 µg/mL	2 µg/mL
CC(C)=CCc1cccc2[nH]cc(C[C@@H]3NC(=O)[C@H](Cc4c[nH]c5ccccc45)NC(=O)[C@@H]4CCCN4C(=O)[C@@H](CS(=O)(=O)O)NC(=O)[C@@H](NC(=O)[C@@H](NC(=O)[C@H](C)NC(=O)CC(=O)O)C(C)C)COC(=O)[C@H](CO)NC(=O)[C@@H](CC(C)C)NC(=O)[C@@H](C(C)C)NC3=O)c12	16 µg/mL	16 µg/mL	> 128 µg/mL	8 µg/mL
